Values of other authors in article PMC11333285, “Inhibition of lysine acetyltransferase KAT6 in ER^+HER2^− metastatic breast cancer: a phase 1 trial” (Nature Medicine, 2024).
Read-outs that look alike come from different tables or passages of the source.

Columns and labels:
mBC with ESR1 mutations = test system: mBC with ESR1 mutations; parameters: method as in PMID 35584336; settings: patients with ESR1 mutations
HR+/HER2− mBC [1] = test system: HR+/HER2− mBC; parameters: method as in PMID 34357781; settings: HR+/HER2− mBC progressed after aromatase inhibitors
HR+/HER2− mBC [2] = test system: HR+/HER2− mBC; parameters: method as in PMID 35583555, PMID 35584336; settings: all comers after first-line CDK4/6 inhibitors and ET

For CCNCCc1ccc(CN(CC)c2cc(OC)ccc2[C@@H]2CCc3cc(O)ccc3C2)cc1 [elacestrant], the mPFS (mBC with ESR1 mutations) is listed as 3.8 months.
In the case of Nc1ccccc1NC(=O)c1ccc(CNC(=O)OCc2cccnc2)cc1 [entionostat plus ET], the mPFS (HR+/HER2− mBC [1]) is listed as 3.3 months.
For C[C@]12CC[C@@H]3c4ccc(O)cc4C[C@@H](CCCCCCCCC[S+]([O-])CCCC(F)(F)C(F)(F)F)[C@H]3[C@@H]1CC[C@@H]2O (stereo partly shown) [fulvestrant], the CBR (HR+/HER2− mBC [2]) is listed as 13.7% and the mPFS (HR+/HER2− mBC [2]) is listed as 2 months.
